Key:
MuV sialidase activity = MuV sialidase activity (Mumps virus genotype B, UniProt P11235); type: biochemical
[1] = target: sialidase activity of B/Lee/1940 (Influenza B virus, UniProt P03474); type: biochemical; conditions: pH 6.5
[2] = target: S. pneumoniae sialidase activity (Streptococcus pneumoniae, UniProt P62575); type: biochemical; parameters: key to Test result in the BTP3-based filter method in the presence of NAI: -, not detected; conditions: for NAI susceptibility in the BTP3-based filter method (fluorescence in the presence of NAI): pH 6.5, 56°C 15 min
[3] = system: sialidase activity of A/Shizuoka/19/2016 (H1N1pdm); type: biochemical, influenza A virus (H1N1pdm); conditions: pH 6.5
[4] = system: sialidase activity of A/Memphis/1/1971 (H3N2); type: biochemical, influenza A virus (H3N2); conditions: pH 6.5
[5] = system: sialidase activity of A/Shizuoka/17/2016 (H1N1pdm); type: biochemical, influenza A virus (H1N1pdm); conditions: pH 6.5
[6] = target: sialidase activity of A/Puerto Rico/8/1934 (H1N1) (Influenza A virus, UniProt P03468); type: biochemical; conditions: pH 6.5
Chain of sialidase activity of A/Puerto Rico/8/1934 (H1N1) (P03468 whole entry, looked up): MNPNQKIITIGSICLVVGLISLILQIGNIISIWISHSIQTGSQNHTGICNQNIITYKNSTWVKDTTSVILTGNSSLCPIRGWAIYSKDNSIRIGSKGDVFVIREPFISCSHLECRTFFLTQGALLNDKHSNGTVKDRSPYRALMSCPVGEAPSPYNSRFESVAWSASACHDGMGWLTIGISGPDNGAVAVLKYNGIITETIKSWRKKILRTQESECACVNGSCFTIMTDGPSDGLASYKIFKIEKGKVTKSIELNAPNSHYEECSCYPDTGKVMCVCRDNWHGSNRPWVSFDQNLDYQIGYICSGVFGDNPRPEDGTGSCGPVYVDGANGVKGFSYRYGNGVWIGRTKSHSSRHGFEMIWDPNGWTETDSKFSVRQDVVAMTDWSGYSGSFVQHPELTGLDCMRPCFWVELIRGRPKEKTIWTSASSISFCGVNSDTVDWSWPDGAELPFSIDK

Chain of S. pneumoniae sialidase activity (P62575 54-1035): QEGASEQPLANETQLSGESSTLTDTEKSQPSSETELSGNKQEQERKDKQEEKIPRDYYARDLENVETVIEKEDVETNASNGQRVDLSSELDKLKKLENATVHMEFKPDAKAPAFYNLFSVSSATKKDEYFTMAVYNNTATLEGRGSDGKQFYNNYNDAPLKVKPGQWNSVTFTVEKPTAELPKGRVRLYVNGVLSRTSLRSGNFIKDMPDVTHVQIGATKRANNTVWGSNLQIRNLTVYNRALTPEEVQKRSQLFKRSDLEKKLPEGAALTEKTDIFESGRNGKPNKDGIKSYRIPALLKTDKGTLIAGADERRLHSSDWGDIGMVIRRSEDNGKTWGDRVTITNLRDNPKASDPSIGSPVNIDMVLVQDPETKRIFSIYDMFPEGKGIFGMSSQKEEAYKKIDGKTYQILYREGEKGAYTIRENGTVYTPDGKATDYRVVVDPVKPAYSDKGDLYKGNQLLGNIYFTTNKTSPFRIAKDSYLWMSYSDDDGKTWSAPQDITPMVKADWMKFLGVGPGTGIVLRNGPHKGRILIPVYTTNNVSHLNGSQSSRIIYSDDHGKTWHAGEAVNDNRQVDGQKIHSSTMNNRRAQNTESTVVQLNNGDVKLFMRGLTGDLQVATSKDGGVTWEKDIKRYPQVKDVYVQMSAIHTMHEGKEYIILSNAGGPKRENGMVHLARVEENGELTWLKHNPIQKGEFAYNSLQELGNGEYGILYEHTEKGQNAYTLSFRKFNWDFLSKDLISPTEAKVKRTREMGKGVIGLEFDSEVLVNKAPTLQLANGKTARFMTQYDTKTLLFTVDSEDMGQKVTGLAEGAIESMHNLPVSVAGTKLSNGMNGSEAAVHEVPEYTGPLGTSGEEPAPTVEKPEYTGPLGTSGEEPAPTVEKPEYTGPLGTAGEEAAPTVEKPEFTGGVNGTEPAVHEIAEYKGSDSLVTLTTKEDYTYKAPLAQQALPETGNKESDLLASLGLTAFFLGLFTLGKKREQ
Chain of sialidase activity of B/Lee/1940 (P03474 whole entry): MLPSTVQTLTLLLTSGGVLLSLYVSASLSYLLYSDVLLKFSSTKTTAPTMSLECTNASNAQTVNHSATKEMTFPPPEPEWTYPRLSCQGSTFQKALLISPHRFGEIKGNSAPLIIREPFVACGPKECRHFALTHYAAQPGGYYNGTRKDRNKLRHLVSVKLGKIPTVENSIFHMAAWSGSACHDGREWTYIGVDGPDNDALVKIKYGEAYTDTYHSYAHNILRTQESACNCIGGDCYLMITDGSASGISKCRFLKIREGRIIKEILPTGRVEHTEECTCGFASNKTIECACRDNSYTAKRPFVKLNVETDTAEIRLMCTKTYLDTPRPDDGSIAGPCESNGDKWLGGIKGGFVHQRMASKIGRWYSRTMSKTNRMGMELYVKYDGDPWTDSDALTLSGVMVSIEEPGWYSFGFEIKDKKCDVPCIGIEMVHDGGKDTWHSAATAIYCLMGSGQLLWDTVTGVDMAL
Chain of MuV sialidase activity (P11235 whole entry): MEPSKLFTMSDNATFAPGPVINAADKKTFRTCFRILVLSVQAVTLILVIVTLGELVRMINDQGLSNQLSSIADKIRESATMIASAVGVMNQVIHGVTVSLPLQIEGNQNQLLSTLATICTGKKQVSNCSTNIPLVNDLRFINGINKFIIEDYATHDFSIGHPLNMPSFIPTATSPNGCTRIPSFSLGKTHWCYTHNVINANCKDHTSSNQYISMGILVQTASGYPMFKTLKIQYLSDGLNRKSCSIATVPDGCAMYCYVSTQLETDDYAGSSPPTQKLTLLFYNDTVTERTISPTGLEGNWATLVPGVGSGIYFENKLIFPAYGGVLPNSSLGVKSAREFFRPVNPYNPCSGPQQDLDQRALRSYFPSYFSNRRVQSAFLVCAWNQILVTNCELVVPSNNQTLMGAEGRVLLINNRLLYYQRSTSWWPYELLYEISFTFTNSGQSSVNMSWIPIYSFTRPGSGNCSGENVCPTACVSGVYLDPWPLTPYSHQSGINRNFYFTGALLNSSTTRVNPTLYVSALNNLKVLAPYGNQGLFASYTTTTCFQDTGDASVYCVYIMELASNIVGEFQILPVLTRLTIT

| Structure (SMILES) | Test result in the BTP3-based filter method in the presence of NAI (MuV sialidase activity) | BTP3 fluorescence on the membrane in the presence of NAI [1] | Test result in the BTP3-based filter method in the presence of NAI [2] | NAI susceptibility in the BTP3-based filter method (fluorescence in the presence of NAI) [2] | BTP3 fluorescence on the membrane in the presence of NAI [3] | BTP3 fluorescence on the membrane in the presence of NAI [4] | BTP3 fluorescence on the membrane in the presence of NAI [5] | BTP3 fluorescence on the membrane in the presence of NAI [6] |
| --- | --- | --- | --- | --- | --- | --- | --- | --- |
| CCC(CC)[C@H](NC(C)=O)[C@@H]1[C@H](O)[C@@H](C(=O)O)C[C@H]1N=C(N)N [PV, peramivir] | Positive | not observed | Positive | showed fluorescence | not observed | not observed | not observed | not observed |
| CC(=O)N[C@H]1[C@H]([C@H](O)[C@H](O)CO)OC(C(=O)O)=C[C@@H]1N=C(N)N [ZV, zanamivir] | Positive |  | Positive | showed fluorescence | not observed | not observed | not observed |  |
| CCOC(=O)C1=C[C@@H](OC(CC)CC)[C@H](NC(C)=O)[C@@H](N)C1 [OV, oseltamivir] | Positive | not observed | - | susceptible | not observed | not observed | not observed | not observed |
| [H]/N=C(\N)N[C@H]1C=C(C(=O)O)O[C@@H]([C@H](OC)[C@H](O)CO)[C@@H]1NC(C)=O [LV, laninamivir] | Positive | not observed | Positive | showed fluorescence | not observed | not observed | not observed | not observed |

From article PMC6042793 (PLoS ONE, 2018)
